As a reminder, the T/C is the result in the treated group divided by that in the control group, in per cent.

Each structure is given as a SMILES string. Values joined by “and” are separate entries in the source; they are usually repeats but may differ in a detail not shown here. Identical values can stand only once.

In this assay the test system is Swiss mice, Sarcoma 180 sc, mean tumor weight T/C. The experiment in a line: NCI In Vivo Anticancer Drug Screen. Data for tumor model Sarcoma 180 (subcutaneous) in Swiss mice. The following applies: endpoint: mean tumor weight, higher = larger tumour. In short, it runs like this:
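Tumor-bearing mice, transplantable tumor; readout survival or tumor size; result = T/C, treated vs vehicle control.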

In the case of `CC(=O)OCC(=O)[C@@]1(O)CC[C@H]2[C@@H]3C=C(C)C4=CC(=O)CC[C@]4(C)[C@H]3[C@@H](O)C[C@@]21C`, the T/C was 67 % of control (dose: 6.1 mg/kg/injection, schedule: Q01DX007 (sc), vehicle: steriod suspending solution); 49 % of control (dose: 10.0 mg/kg/injection, schedule: Q#A X014 (ip), vehicle: methylcellulose (MC)); 43 % of control (dose: 11.8 mg/kg/injection, schedule: Q01DX007 (sc), vehicle: steriod suspending solution); 50 % of control (dose: 12.5 mg/kg/injection, schedule: Q01DX007 (sc), vehicle: steriod suspending solution); 41 % of control and 44 % of control (dose: 15.0 mg/kg/injection, schedule: Q#A X014 (ip), vehicle: methylcellulose (MC)); 40 % of control (dose: 17.7 mg/kg/injection, schedule: Q01DX007 (sc), vehicle: steriod suspending solution). Further, the T/C runs as follows: (dose: 20.0 mg/kg/injection, schedule: Q01DX007 (sc), vehicle: steriod suspending solution) 83 % of control; (dose: 22.5 mg/kg/injection, schedule: Q#A X014 (ip), vehicle: methylcellulose (MC)) 60 % of control and 64 % of control; (dose: 25.0 mg/kg/injection, schedule: Q01DX007 (sc), vehicle: steriod suspending solution) 39 % of control; (dose: 26.6 mg/kg/injection, schedule: Q01DX007 (sc), vehicle: steriod suspending solution) 52 % of control; (dose: 30.0 mg/kg/injection, schedule: Q01DX007 (sc), vehicle: steriod suspending solution) 55 % of control; (dose: 33.75 mg/kg/injection, schedule: Q#A X014 (ip), vehicle: methylcellulose (MC)) 31 % of control and 54 % of control. Besides, the T/C was 41 % of control (dose: 40.0 mg/kg/injection, schedule: Q01DX007 (sc), vehicle: steriod suspending solution); 58 % of control and 64 % of control (dose: 45.0 mg/kg/injection, schedule: Q01DX007 (sc), vehicle: steriod suspending solution); 71 % of control (dose: 53.0 mg/kg/injection, schedule: Q01DX007 (sc), vehicle: steriod suspending solution); 36 % of control (dose: 60.0 mg/kg/injection, schedule: Q01DX007 (sc), vehicle: steriod suspending solution); 60 % of control (dose: 67.5 mg/kg/injection, schedule: Q01DX007 (sc), vehicle: steriod suspending solution); 53 % of control (dose: 80.0 mg/kg/injection, schedule: Q01DX007 (sc), vehicle: steriod suspending solution). Besides, the T/C is 31 % of control (dose: 90.0 mg/kg/injection, schedule: Q01DX007 (sc), vehicle: steriod suspending solution); 26 % of control (dose: 100.0 mg/kg/injection, schedule: Q01DX007 (sc), vehicle: steriod suspending solution); 51 % of control (dose: 120.0 mg/kg/injection, schedule: Q01DX007 (sc), vehicle: steriod suspending solution); 27 % of control (dose: 135.0 mg/kg/injection, schedule: Q01DX007 (sc), vehicle: steriod suspending solution); 54 % of control (dose: 150.0 mg/kg/injection, schedule: Q01DX007 (sc), vehicle: steriod suspending solution); 32 % of control (dose: 180.0 mg/kg/injection, schedule: Q01DX007 (sc), vehicle: steriod suspending solution). Further, the T/C (dose: 202.5 mg/kg/injection, schedule: Q01DX007 (sc), vehicle: steriod suspending solution) is 24 % of control.

With `c1cncc(CSc2ncnc3nc[nH]c23)c1`, the T/C is 53 % of control (dose: 11.1 mg/kg/injection, schedule: Q#A X014 (ip), vehicle: methylcellulose (MC)); 60 % of control (dose: 16.65 mg/kg/injection, schedule: Q#A X014 (ip), vehicle: methylcellulose (MC)); 70 % of control (dose: 25.0 mg/kg/injection, schedule: Q#A X014 (ip), vehicle: methylcellulose (MC)); 47 % of control (dose: 37.5 mg/kg/injection, schedule: Q#A X014 (ip), vehicle: methylcellulose (MC)).

Regarding `O=C(O)CCC(=O)CCl`, the T/C (dose: 6.2 mg/kg/injection, schedule: Q01DX007 (ip), vehicle: saline) was 76 % of control; the T/C (dose: 9.3 mg/kg/injection, schedule: Q01DX007 (ip), vehicle: saline) was 57 % of control; the T/C (dose: 14.0 mg/kg/injection, schedule: Q01DX007 (ip), vehicle: saline) is 57 % of control; the T/C (dose: 21.0 mg/kg/injection, schedule: Q01DX007 (ip), vehicle: saline) is 46 % of control and 55 % of control; the T/C (dose: 30.0 mg/kg/injection, schedule: Q01DX007 (ip), vehicle: saline) was 31 % of control.

Turning to `COc1ccc2c3c(c4cc(OC)c(OC)cc4c2c1)C[C@H]1CCCCN1C3`, the T/C reads like this: (dose: 0.5 mg/kg/injection, schedule: Q01DX007 (ip), vehicle: carboxymethylcellulose (CMC)) 82 % of control; (dose: 1.0 mg/kg/injection, schedule: Q01DX007 (ip), vehicle: carboxymethylcellulose (CMC)) 65 % of control.

For `CNC(=O)NO`, the T/C reads like this: (dose: 50.0 mg/kg/injection, schedule: Q01DX007 (ip), vehicle: water) 100 % of control; (dose: 100.0 mg/kg/injection, schedule: Q01DX007 (ip), vehicle: water) 109 % of control; (dose: 200.0 mg/kg/injection, schedule: Q01DX007 (ip), vehicle: water) 95 % of control; (dose: 400.0 mg/kg/injection, schedule: Q01DX007 (ip), vehicle: water) 60 % of control.

With `CCN(CC)CCOC(=O)c1ccc(N)cc1`, for the setting “dose: 75.0 mg/kg/injection, schedule: Q#A X014 (ip), vehicle: saline”, the T/C is 92 % of control.

`O=C1N(Cl)C(=O)C(c2ccccc2)(c2ccc(F)cc2)N1Cl` (centres undefined): the T/C reads like this: (dose: 17.5 mg/kg/injection, schedule: Q#A X014 (ip), vehicle: methylcellulose (MC)) 121 % of control; (dose: 42.5 mg/kg/injection, schedule: Q#A X014 (ip), vehicle: methylcellulose (MC)) 88 % of control; (dose: 62.5 mg/kg/injection, schedule: Q#A X014 (ip), vehicle: methylcellulose (MC)) 75 % of control.

`O=C(O)C(=O)O.O=C([O-])C(=O)O.O=C([O-])C(=O)O.O=C([O-])C(=O)[O-].[K+].[U]`: the T/C is 51 % of control and 59 % of control (dose: 7.5 mg/kg/injection, schedule: Q#A X014 (ip), vehicle: saline); 21 % of control (dose: 11.25 mg/kg/injection, schedule: Q#A X014 (ip), vehicle: saline).

Take `NCC(=O)O.[Zn+2]`: the T/C runs as follows: (dose: 1.25 mg/kg/injection, schedule: Q01DX007 (iv), vehicle: water) 99 % of control; (dose: 2.5 mg/kg/injection, schedule: Q01DX007 (iv), vehicle: water) 83 % of control; (dose: 5.0 mg/kg/injection, schedule: Q01DX007 (iv), vehicle: water) 113 % of control; (dose: 10.0 mg/kg/injection, schedule: Q01DX007 (iv), vehicle: water) 95 % of control.

As for `NC(=O)NO`, the T/C is 89 % of control (dose: 16.0 mg/kg/injection, schedule: Q01DX007 (ip), vehicle: carboxymethylcellulose (CMC)); 111 % of control (dose: 32.0 mg/kg/injection, schedule: Q01DX007 (ip), vehicle: carboxymethylcellulose (CMC)); 112 % of control (dose: 64.0 mg/kg/injection, schedule: Q01DX007 (ip), vehicle: carboxymethylcellulose (CMC)); 69 % of control (dose: 128.0 mg/kg/injection, schedule: Q01DX007 (ip), vehicle: carboxymethylcellulose (CMC)).

For the compound `CNC(C)C(O)c1ccccc1` (centres undefined), the T/C reads like this: (dose: 133.0 mg/kg/injection, schedule: Q01DX007 (ip), vehicle: saline) 78 % of control; (dose: 200.0 mg/kg/injection, schedule: Q01DX007 (ip), vehicle: saline) 60 % of control.

For the compound `CCCCCCCCCCC(O)CN1CCN(c2ccc(C)cc2)CC1` (centres undefined), the T/C was 63 % of control (dose: 110.0 mg/kg/injection, schedule: Q01DX007 (ip), vehicle: olive oil, sesame oil, peanut oil); 51 % of control (dose: 168.0 mg/kg/injection, schedule: Q01DX007 (ip), vehicle: olive oil, sesame oil, peanut oil); 77 % of control (dose: 250.0 mg/kg/injection, schedule: Q01DX007 (ip), vehicle: olive oil, sesame oil, peanut oil).

The values are drawn from PubChem BioAssay AID342 (DTP/NCI, 2004).
